Assay results: the NIST ThermoML archive (doi:10.1021/acs.jced.7b00119)

How the values were obtained:
[1] = excess molar enthalpy (molar enthalpy of mixing); xn = mol fraction of the nth substance listed; details: Liquid, Flow calorimetry
[2] = Liquid, Closed cell (Static) method

CC(=O)N(C)C [N,N-dimethylethanamide] + CCCCCC
[1]
Details | excess molar enthalpy [kcal/mol]
363.15 K, 1982 kPa, x2 = 0.0358 | 0.0559
363.15 K, 1982 kPa, x2 = 0.0726 | 0.114
363.15 K, 1982 kPa, x2 = 0.1106 | 0.168
363.15 K, 1982 kPa, x2 = 0.1498 | 0.218
363.15 K, 1982 kPa, x2 = 0.1902 | 0.262
363.15 K, 1982 kPa, x2 = 0.2319 | 0.302
363.15 K, 1982 kPa, x2 = 0.275 | 0.337
363.15 K, 1982 kPa, x2 = 0.3196 | 0.366
363.15 K, 1982 kPa, x2 = 0.3657 | 0.391
363.15 K, 1982 kPa, x2 = 0.4134 | 0.41
363.15 K, 1982 kPa, x2 = 0.4627 | 0.419
363.15 K, 1982 kPa, x2 = 0.5138 | 0.426
363.15 K, 1982 kPa, x2 = 0.5668 | 0.426
363.15 K, 1982 kPa, x2 = 0.6218 | 0.418
363.15 K, 1982 kPa, x2 = 0.6788 | 0.4
363.15 K, 1982 kPa, x2 = 0.7381 | 0.37
363.15 K, 1982 kPa, x2 = 0.7997 | 0.324
363.15 K, 1982 kPa, x2 = 0.8638 | 0.258
363.15 K, 1982 kPa, x2 = 0.9305 | 0.157
413.15 K, 1824 kPa, x2 = 0.0179 | 0.0289
413.15 K, 1824 kPa, x2 = 0.0361 | 0.059
413.15 K, 1824 kPa, x2 = 0.0733 | 0.117
413.15 K, 1824 kPa, x2 = 0.1116 | 0.17
413.15 K, 1824 kPa, x2 = 0.151 | 0.218
413.15 K, 1824 kPa, x2 = 0.1917 | 0.262
413.15 K, 1824 kPa, x2 = 0.2337 | 0.304
413.15 K, 1824 kPa, x2 = 0.277 | 0.338
413.15 K, 1824 kPa, x2 = 0.3217 | 0.369
413.15 K, 1824 kPa, x2 = 0.3679 | 0.396
413.15 K, 1824 kPa, x2 = 0.4157 | 0.421
413.15 K, 1824 kPa, x2 = 0.4651 | 0.433
413.15 K, 1824 kPa, x2 = 0.5163 | 0.441
413.15 K, 1824 kPa, x2 = 0.5692 | 0.442
413.15 K, 1824 kPa, x2 = 0.6241 | 0.434
413.15 K, 1824 kPa, x2 = 0.681 | 0.415
413.15 K, 1824 kPa, x2 = 0.74 | 0.386
413.15 K, 1824 kPa, x2 = 0.8013 | 0.337
413.15 K, 1824 kPa, x2 = 0.8649 | 0.264
413.15 K, 1824 kPa, x2 = 0.9311 | 0.158
413.15 K, 1824 kPa, x2 = 0.9652 | 0.086

c1ccccc1 [benzene]
Details | vapor or sublimation pressure [kPa]
[2], 328.15 K | 43.65

ClCCl [dichloromethane]
Details | vapor or sublimation pressure [kPa]
[2], 333.15 K | 197.94

CC(=O)N(C)C [N,N-dimethylethanamide] + Cc1ccccc1
[1]
Details | excess molar enthalpy [kcal/mol]
363.15 K, 1955 kPa, x2 = 0.0436 | 0.00378
363.15 K, 1955 kPa, x2 = 0.0878 | 0.00686
363.15 K, 1955 kPa, x2 = 0.1327 | 0.0102
363.15 K, 1955 kPa, x2 = 0.1781 | 0.0134
363.15 K, 1955 kPa, x2 = 0.2242 | 0.0163
363.15 K, 1955 kPa, x2 = 0.2709 | 0.0193
363.15 K, 1955 kPa, x2 = 0.3182 | 0.0232
363.15 K, 1955 kPa, x2 = 0.3662 | 0.0263
363.15 K, 1955 kPa, x2 = 0.4149 | 0.0292
363.15 K, 1955 kPa, x2 = 0.4643 | 0.0318
363.15 K, 1955 kPa, x2 = 0.5144 | 0.0344
363.15 K, 1955 kPa, x2 = 0.5652 | 0.0361
363.15 K, 1955 kPa, x2 = 0.6168 | 0.0368
363.15 K, 1955 kPa, x2 = 0.6691 | 0.038
363.15 K, 1955 kPa, x2 = 0.7222 | 0.0385
363.15 K, 1955 kPa, x2 = 0.7761 | 0.0375
363.15 K, 1955 kPa, x2 = 0.8308 | 0.0349
363.15 K, 1955 kPa, x2 = 0.8864 | 0.0289
363.15 K, 1955 kPa, x2 = 0.9428 | 0.0178
413.15 K, 1824 kPa, x2 = 0.022 | 0.00251
413.15 K, 1824 kPa, x2 = 0.0441 | 0.00528
413.15 K, 1824 kPa, x2 = 0.0887 | 0.00963
413.15 K, 1824 kPa, x2 = 0.1338 | 0.014
413.15 K, 1824 kPa, x2 = 0.1796 | 0.0186
413.15 K, 1824 kPa, x2 = 0.2259 | 0.0225
413.15 K, 1824 kPa, x2 = 0.2728 | 0.0265
413.15 K, 1824 kPa, x2 = 0.3204 | 0.0311
413.15 K, 1824 kPa, x2 = 0.3686 | 0.0354
413.15 K, 1824 kPa, x2 = 0.4174 | 0.0406
413.15 K, 1824 kPa, x2 = 0.4668 | 0.0449
413.15 K, 1824 kPa, x2 = 0.5169 | 0.0485
413.15 K, 1824 kPa, x2 = 0.5677 | 0.0523
413.15 K, 1824 kPa, x2 = 0.6192 | 0.0554
413.15 K, 1824 kPa, x2 = 0.6714 | 0.0571
413.15 K, 1824 kPa, x2 = 0.7243 | 0.0576
413.15 K, 1824 kPa, x2 = 0.7779 | 0.0557
413.15 K, 1824 kPa, x2 = 0.8323 | 0.0497
413.15 K, 1824 kPa, x2 = 0.8874 | 0.0406
413.15 K, 1824 kPa, x2 = 0.9433 | 0.0246
413.15 K, 1824 kPa, x2 = 0.9715 | 0.0134

CCCCCC [hexane]
Details | vapor or sublimation pressure [kPa]
[2], 353.15 K | 142.4

ClCCl [dichloromethane] + CC(=O)N(C)C
[1], 323.15 K, 1273 kPa
Details | excess molar enthalpy [kcal/mol]
x1 = 0.0709 | -0.101
x1 = 0.1387 | -0.188
x1 = 0.2037 | -0.265
x1 = 0.2659 | -0.328
x1 = 0.3257 | -0.379
x1 = 0.3831 | -0.412
x1 = 0.4383 | -0.438
x1 = 0.4914 | -0.454
x1 = 0.5425 | -0.458
x1 = 0.5917 | -0.456
x1 = 0.6391 | -0.44
x1 = 0.6849 | -0.417
x1 = 0.7291 | -0.386
x1 = 0.7718 | -0.348
x1 = 0.813 | -0.303
x1 = 0.8529 | -0.252
x1 = 0.8914 | -0.195
x1 = 0.9288 | -0.132
x1 = 0.965 | -0.0681

CO [methanol]
Details | vapor or sublimation pressure [kPa]
[2], 343.15 K | 125.65
